Data reported in patent publication US10105357B2, “Indication of antibiotic drugs for preparation of cancer inhibition pharmaceutical composition” (LAUNX BIOMEDICAL CO., LTD., priority 2014, dated 2018).
Counter-ions that a name gives are not always drawn. Like-named read-outs stand apart in the source and are kept apart here.

Columns and labels:
Format in all cases: cell-based, human
[1] = system: TSGH-8301 (Urinary Bladder Carcinoma); assay: Cell viability analysis, bladder cancer TSGH-8301; conditions: for viability at 10 µM: Homo sapiens
[2] = system: MKN-45 (Gastric Adenocarcinoma); assay: Cell viability analysis, gastric cancer MKN-45; conditions: for viability at 10 µM: Homo sapiens
[3] = system: PC3 (p53−) (Prostate Adenocarcinoma); assay: Cell viability analysis, prostate cancer PC3; conditions: for viability at 10 µM: Homo sapiens
[4] = system: AGS (Gastric Adenocarcinoma); assay: Cell viability analysis, gastric cancer AGS; conditions: for viability at 10 µM: Homo sapiens
[5] = system: HepG2 (Hepatocellular Carcinoma); assay: Cell viability analysis, hepatic cancer HepG2; conditions: for viability at 10 µM: Homo sapiens
[6] = system: HeLa (Cervix Adenocarcinoma); assay: Cell viability analysis, cervical cancer HeLa; conditions: for viability at 10 µM: Homo sapiens, HeLa
[7] = system: A549 (Lung Adenocarcinoma); assay: Cell viability analysis, lung cancer A549; conditions: for viability at 10 µM: Homo sapiens
[8] = system: HL-60 (Acute Promyelocytic Leukemia); assay: Cell viability analysis, leukemia HL-60; conditions: for viability at 10 µM: Homo sapiens
[9] = system: A375 (Amelanotic Melanoma); assay: Cell viability analysis, skin cancer A375; conditions: for viability at 10 µM: Homo sapiens
[10] = system: HI650 (Lung Adenocarcinoma); assay: Cell viability analysis, lung cancer HI650; conditions: for viability at 10 µM: Homo sapiens
[11] = system: MCF7 (Mammary Gland, Adenocarcinoma); assay: Cell viability analysis, breast cancer MCF7; conditions: for viability at 10 µM: Homo sapiens
[12] = system: LoVo (Colorectal Adenocarcinoma); assay: Cell viability analysis, colon cancer LoVo; conditions: for viability at 10 µM: Homo sapiens, LoVo
[13] = 72 h, read-out: cell viability (survival rate), TSGH, drug 10 μM, 72 hours, WST-1, OD450 nm
[14] = MKN-45, 72 h, read-out: cell viability (survival rate), MKN-45, drug 10 μM, 72 hours, WST-1, OD450 nm
[15] = 72 h, read-out: cell viability (survival rate), PC3, drug 10 μM, 72 hours, WST-1, OD450 nm
[16] = 72 h, read-out: cell viability (survival rate), AGS, drug 10 μM, 72 hours, WST-1, OD450 nm
[17] = HepG2, 72 h, read-out: cell viability (survival rate), HepG2, drug 10 μM, 72 hours, WST-1, OD450 nm
[18] = 72 h, read-out: cell viability (survival rate), HeLa, drug 10 μM, 72 hours, WST-1, OD450 nm
[19] = A549, 72 h, read-out: cell viability (survival rate), A549, drug 10 μM, 72 hours, WST-1, OD450 nm
[20] = HL-60, 72 h, read-out: cell viability (survival rate), HL-60, drug 10 μM, 72 hours, WST-1, OD450 nm
[21] = A-375, 72 h, read-out: cell viability (survival rate), A375, drug 10 μM, 72 hours, WST-1, OD450 nm
[22] = NCI-H1650, 72 h, read-out: cell viability (survival rate), H1650, drug 10 μM, 72 hours, WST-1, OD450 nm
[23] = MCF7, 72 h, read-out: cell viability (survival rate), MCF7, drug 10 μM, 72 hours, WST-1, OD450 nm
[24] = 72 h, read-out: cell viability (survival rate), LoVo, drug 10 μM, 72 hours, WST-1, OD450 nm
[25] = 72 h, drug 10 μM, 72 hours, WST-1, OD450 nm, read-out: cell viability (survival rate), TSGH
[26] = MKN-45, 72 h, drug 10 μM, 72 hours, WST-1, OD450 nm, read-out: cell viability (survival rate), MKN-45
[27] = 72 h, drug 10 μM, 72 hours, WST-1, OD450 nm, read-out: cell viability (survival rate), PC3
[28] = 72 h, drug 10 μM, 72 hours, WST-1, OD450 nm, read-out: cell viability (survival rate), AGS
[29] = HepG2, 72 h, drug 10 μM, 72 hours, WST-1, OD450 nm, read-out: cell viability (survival rate), HepG2
[30] = 72 h, drug 10 μM, 72 hours, WST-1, OD450 nm, read-out: cell viability (survival rate), HeLa
[31] = A549, 72 h, drug 10 μM, 72 hours, WST-1, OD450 nm, read-out: cell viability (survival rate), A549
[32] = HL-60, 72 h, drug 10 μM, 72 hours, WST-1, OD450 nm, read-out: cell viability (survival rate), HL-60
[33] = A-375, 72 h, drug 10 μM, 72 hours, WST-1, OD450 nm, read-out: cell viability (survival rate), A375
[34] = NCI-H1650, 72 h, drug 10 μM, 72 hours, WST-1, OD450 nm, read-out: cell viability (survival rate), H1650
[35] = MCF7, 72 h, drug 10 μM, 72 hours, WST-1, OD450 nm, read-out: cell viability (survival rate), MCF7

| SMILES | viability at 10 µM [1, 13] [%] | viability at 10 µM [2, 14] [%] | viability at 10 µM [3, 15] [%] | viability at 10 µM [4, 16] [%] | viability at 10 µM [5, 17] [%] | viability at 10 µM [6, 18] [%] | viability at 10 µM [7, 19] [%] | viability at 10 µM [8, 20] [%] | viability at 10 µM [9, 21] [%] | viability at 10 µM [10, 22] [%] | viability at 10 µM [11, 23] [%] | viability at 10 µM [12, 24] [%] | also measured |
| --- | --- | --- | --- | --- | --- | --- | --- | --- | --- | --- | --- | --- | --- |
| CC[C@H]1OC(=O)[C@H](C)[C@@H](O[C@H]2C[C@@](C)(OC)[C@@H](O)[C@H](C)O2)[C@H](C)[C@@H](O[C@@H]2O[C@H](C)C[C@H](N(C)C)[C@H]2O)[C@](C)(O)C[C@@H](C)[C@@H]2N[C@@H](COCCOC)O[C@H]([C@H]2C)[C@]1(C)O [Dirithromycin] | 77.2 | 106 | 77.1 | 63.2 | 90.6 | 91.9 | 64.8 | 90.2 | 83.7 | 65.5 | 62.6 | 83.7 |  |
| CCOC(=O)CCC(=O)O[C@H]1[C@H](O[C@@H]2[C@@H](C)[C@H](O[C@H]3C[C@@](C)(OC)[C@@H](O)[C@H](C)O3)[C@@H](C)C(=O)O[C@H](CC)[C@@](C)(O)[C@H](O)[C@@H](C)C(=O)[C@H](C)C[C@@]2(C)O)O[C@H](C)C[C@@H]1N(C)C [Erythromycin Ethylsuccinate] |  |  |  |  |  |  |  |  |  |  |  |  | viability at 10 µM ([1]; drug 10 μM, 72 hours, WST-1, OD450 nm, read-out: cell viability (survival rate), TSGH): 125%; viability at 10 µM ([2]; MKN-45, drug 10 μM, 72 hours, WST-1, OD450 nm, read-out: cell viability (survival rate), MKN-45): 129%; viability at 10 µM ([3]; drug 10 μM, 72 hours, WST-1, OD450 nm, read-out: cell viability (survival rate), PC3): 112%; viability at 10 µM ([4]; drug 10 μM, 72 hours, WST-1, OD450 nm, read-out: cell viability (survival rate), AGS): 111%; viability at 10 µM ([5]; HepG2, drug 10 μM, 72 hours, WST-1, OD450 nm, read-out: cell viability (survival rate), HepG2): 97.1%; viability at 10 µM ([6]; drug 10 μM, 72 hours, WST-1, OD450 nm, read-out: cell viability (survival rate), HeLa): 148%; viability at 10 µM ([7]; A549, drug 10 μM, 72 hours, WST-1, OD450 nm, read-out: cell viability (survival rate), A549): 90%; viability at 10 µM ([8]; HL-60, drug 10 μM, 72 hours, WST-1, OD450 nm, read-out: cell viability (survival rate), HL-60): 83.6%; viability at 10 µM ([9]; A-375, drug 10 μM, 72 hours, WST-1, OD450 nm, read-out: cell viability (survival rate), A375): 75%; viability at 10 µM ([10]; NCI-H1650, drug 10 μM, 72 hours, WST-1, OD450 nm, read-out: cell viability (survival rate), H1650): 83.8%; viability at 10 µM ([11]; MCF7, drug 10 μM, 72 hours, WST-1, OD450 nm, read-out: cell viability (survival rate), MCF7): 88.2%; viability at 10 µM ([12]; drug 10 μM, 72 hours, WST-1, OD450 nm, read-out: cell viability (survival rate), LoVo): 80% |
| Nc1ccn([C@@H]2CS[C@H](CO)O2)c(=O)n1 [Lamivudine (Epivir), Lamivudine] | 71.1 | 47.7 | 110 | 44.7 | 108 | 86.4 | 75.2 | 119 | 95.8 | 54.1 | 83.2 | 71.3 |  |
| C[C@H]1COc2c(N3CCN(C)CC3)c(F)cc3c(=O)c(C(=O)O)cn1c23 [Levofloxacin (Levaquin), Levofloxacin] | 41.8 | 44.5 | 29.6 | 51.6 | 88.4 | 50.8 | 36.7 | 93 | 39.3 | 64.9 | 43.9 | 62.6 |  |
| Cc1ccccc1C(OCCN(C)C)c1ccccc1 (stereo not drawn) [Orphenadrine citrate (Norflex), Orphenadrine citrate] | 53.4 | 102 | 41.6 | 82.9 | 97.8 | 67.9 | 21.8 | 92.9 | 89.2 | 99.6 | 35.9 | 45.6 |  |
| CN(C)[C@@H]1C(O)=C(C(N)=O)C(=O)[C@@]2(O)C(O)=C3C(=O)c4c(O)cccc4[C@@](C)(O)[C@H]3[C@H](O)[C@@H]12 [Oxytetracycline (Terramycin), Oxytetracycline] |  |  |  |  |  |  |  |  |  |  |  |  | cell viability (survival rate), TSGH ([1]; human, 72 h, 10 µM): 73.8; cell viability (survival rate), MKN-45 ([2]; human, 72 h, 10 µM): 56.7; cell viability (survival rate), PC3 ([3]; human, 72 h, 10 µM): 70.8; cell viability (survival rate), AGS ([4]; human, 72 h, 10 µM): 61.9; cell viability (survival rate), HepG2 ([5]; human, 72 h, 10 µM): 88.4; cell viability (survival rate), HeLa ([6]; human, 72 h, 10 µM): 51.2; cell viability (survival rate), A549 ([7]; human, 72 h, 10 µM): 42.3; cell viability (survival rate), HL-60 ([8]; human, 72 h, 10 µM): 97.9; cell viability (survival rate), A375 ([9]; human, 72 h, 10 µM): 51.2; cell viability (survival rate), H1650 ([10]; human, 72 h, 10 µM): 70.1; cell viability (survival rate), MCF7 ([11]; human, 72 h, 10 µM): 38.9; cell viability (survival rate), LoVo ([12]; human, 72 h, 10 µM): 86.6 |
| NC(=O)c1cnccn1 [Pyrazinamide] |  |  |  |  |  |  |  |  |  |  |  | 56.9 | viability at 10 µM [1, 25]: 88.3%; viability at 10 µM [2, 26]: 53.6%; viability at 10 µM [3, 27]: 100%; viability at 10 µM [4, 28]: 74.9%; viability at 10 µM [5, 29]: 88.1%; viability at 10 µM [6, 30]: 54.3%; viability at 10 µM [7, 31]: 33.9%; viability at 10 µM [8, 32]: 106%; viability at 10 µM [9, 33]: 58.6%; viability at 10 µM [10, 34]: 79.1%; viability at 10 µM [11, 35]: 40.9% |
| CN(CCOc1ccc(CC2SC(=O)NC2=O)cc1)c1ccccn1 (stereo not drawn) [Rosiglitazone maleate] |  |  |  |  |  |  |  |  |  |  |  | 93.5 | viability at 10 µM [1, 25]: 85.2%; viability at 10 µM [2, 26]: 73.7%; viability at 10 µM [3, 27]: 121%; viability at 10 µM [4, 28]: 113%; viability at 10 µM [5, 29]: 95.1%; viability at 10 µM [6, 30]: 83.3%; viability at 10 µM [7, 31]: 79.1%; viability at 10 µM [8, 32]: 109%; viability at 10 µM [9, 33]: 70.3%; viability at 10 µM [10, 34]: 87.7%; viability at 10 µM [11, 35]: 114% |
